One assay deals with human mononuclear cells. The assay is described as follows: ODN 1760-induced [3H] thymidine incorporation in human mononuclear cells. The class given is cell-based. Particulars: unfractionated human peripheral blood cells, four days. How it is done:
[^3H] thymidine incorporation (18 hour pulse) was then measured. […] Thymidine incorporation for untreated samples was less than 0.05%. Samples from three donors were averaged, and error bars indicate 1 standard deviation.
(In general: Uptake of a labelled nucleoside into DNA is a usual measure of proliferation.)

The subject of assay [1] is WEHI 231 cells. Put plainly: CpG-ODN-induced IL-6 synthesis (ELISA). In kind it is cell-based, mouse. Particulars: 10 nM. Background: In an ELISA, binding on a coated surface is turned into a signal by an enzyme label.
Protocol: The assay of IL6 was generally carried out as follows. […] After 24 hours, the IL-6 content of the supernatant was assayed by enzyme-linked immunoassay using two monoclonal antibodies in a sandwich technique as described by the manufacturer, using standards supplied (PharMingen, San Diego Calif.).
Assay [2] has as its system WEHI 231 cells. Particulars: 0.1 μM quinacrine.
Protocol: Unless otherwise noted, cell culture conditions were as follows. WEHI 231 cells (ATTC #CRL 1702) were grown in log phase in a medium of RPMI 1640 supplemented with 10% fetal bovine serum (heat inactivated at 65° C. for one hour), 0.3 grams/Liter of L-glutamine, 50 milligrams/Liter gentamycin, and 0.05 mM 2-mercaptoethanol in a 37° C. humid atmosphere with 5% CO2. WEHI 231 cells were diluted with 0.4% trypan blue in phosphate-buffered saline (PBS) and live cells were counted in a hemocytometer chamber. Cells were resuspended in medium at 2×10^5/milliliter in 24-well tissue culture plates (Costar, Cambridge Mass.). Appropriate additions were made, and the cells were incubated and counted daily. WEHI 231 cells were diluted with fresh medium if the concentration exceeded 7×10^5/milliliter.
Referring to the experiments summarized in FIG. 2a, WEHI 231 cells (2×10^5 per milliliter) were incubated with or without 6 μgrams/milliliter ODN 1760, 10 μgrams/milliliter α-sIgM, or 0.1 μM quinacrine as indicated. Live cells were counted daily. The cells were diluted in medium if their concentration exceeded 7×10^5 per milliliter.

These results are taken from patent publication US7354711B2, “Methods for inhibiting immunostimulatory DNA associated responses” (University of Iowa Research Foundation, priority 1997, dated 2008).

SMILES strings stand for the structures.

Consider `CCN(CC)CCCC(C)Nc1c2ccc(Cl)cc2nc2ccc(OC)cc12` (stereo not shown) [quinacrine], for which, in the assay on human mononuclear cells, the “Effect on ODN 1760-induced thymidine incorporation (FIG. 8)” value is on record as “inhibited”. Besides, the “Reversal of ODN 1760 effect on IL-6 elaboration” value with WEHI 231 cells [1] is “completely reversed”. For the same compound, in the assay on WEHI 231 cells [2], the “Influence of compound alone on cell growth and on cell death induced by α-sIgM” value is “influenced neither cell growth nor cell death”. Moreover, the “Reversal of ODN 1760 protection, cell count over a period of three days (FIG. 2a)” value in the assay on WEHI 231 cells [2] (6 μg/mL ODN 1760, 10 μg/mL α-sIgM) was “reversed this protection”.
